What was measured:
[1] = biological target: Mitogen-activated protein kinase kinase kinase 20 (Homo sapiens) (UniProt Q9NYL2); assay: Binding affinity to wild type partial length human ZAK (M1 to L331) expressed in bacterial expression system assessed as residual activity at 100 nM measured by Kinomescan assay
[2] = biological target: Mitogen-activated protein kinase kinase kinase kinase 5 (Homo sapiens) (UniProt Q9Y4K4); assay: Binding affinity to wild type partial length human MAP4K5 (M1 to P297) expressed in Bacterial expression system assessed as residual activity at 100 nM measured by Kinomescan assay relative to control
[3] = biological target: T1, Dual specificity mitogen-activated protein kinase kinase 7 (Homo sapiens) (UniProt O14733); assay: Binding affinity to wild type full length human MKK7 (M1 to R419 residues) expressed in mammalian expression system assessed as residual activity at 100 nM measured by Kinomescan assay
T1 sequence (whole entry): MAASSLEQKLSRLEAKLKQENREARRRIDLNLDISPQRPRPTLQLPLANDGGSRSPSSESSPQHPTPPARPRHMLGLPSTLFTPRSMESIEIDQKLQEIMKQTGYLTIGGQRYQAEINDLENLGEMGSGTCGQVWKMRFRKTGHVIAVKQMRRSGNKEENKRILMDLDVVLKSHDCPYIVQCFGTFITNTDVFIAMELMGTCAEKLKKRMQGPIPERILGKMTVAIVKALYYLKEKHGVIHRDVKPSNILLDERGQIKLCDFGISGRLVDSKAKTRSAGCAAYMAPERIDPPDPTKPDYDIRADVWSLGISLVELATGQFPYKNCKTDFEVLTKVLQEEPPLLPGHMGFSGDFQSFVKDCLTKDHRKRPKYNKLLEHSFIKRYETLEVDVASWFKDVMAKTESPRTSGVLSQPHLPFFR

Chain of Mitogen-activated protein kinase kinase kinase kinase 5 (Homo sapiens) (Q9Y4K4 whole entry, looked up, the tested form may be a part): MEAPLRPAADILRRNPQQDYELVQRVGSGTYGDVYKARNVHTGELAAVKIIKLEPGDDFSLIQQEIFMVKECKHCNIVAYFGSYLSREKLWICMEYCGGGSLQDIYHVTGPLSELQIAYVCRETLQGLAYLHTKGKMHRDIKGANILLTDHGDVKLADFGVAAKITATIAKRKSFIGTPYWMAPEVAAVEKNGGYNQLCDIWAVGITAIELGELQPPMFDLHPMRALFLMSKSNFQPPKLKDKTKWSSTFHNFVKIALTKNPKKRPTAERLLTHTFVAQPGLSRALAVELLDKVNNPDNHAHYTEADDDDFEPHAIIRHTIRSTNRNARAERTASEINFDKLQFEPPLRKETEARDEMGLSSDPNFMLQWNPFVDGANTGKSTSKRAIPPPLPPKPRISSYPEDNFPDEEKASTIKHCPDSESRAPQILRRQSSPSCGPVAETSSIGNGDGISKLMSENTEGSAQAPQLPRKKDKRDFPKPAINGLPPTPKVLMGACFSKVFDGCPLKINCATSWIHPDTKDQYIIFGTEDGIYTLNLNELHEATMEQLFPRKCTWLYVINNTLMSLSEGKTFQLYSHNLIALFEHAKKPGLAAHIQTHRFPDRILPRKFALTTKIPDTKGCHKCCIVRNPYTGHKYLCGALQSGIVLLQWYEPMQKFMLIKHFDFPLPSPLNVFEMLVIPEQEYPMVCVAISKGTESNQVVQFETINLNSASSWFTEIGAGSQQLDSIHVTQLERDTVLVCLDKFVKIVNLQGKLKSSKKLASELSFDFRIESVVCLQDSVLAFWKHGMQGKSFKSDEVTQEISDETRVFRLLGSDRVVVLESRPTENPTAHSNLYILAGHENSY
Chain of Mitogen-activated protein kinase kinase kinase 20 (Homo sapiens) (Q9NYL2 2-800 limits assumed): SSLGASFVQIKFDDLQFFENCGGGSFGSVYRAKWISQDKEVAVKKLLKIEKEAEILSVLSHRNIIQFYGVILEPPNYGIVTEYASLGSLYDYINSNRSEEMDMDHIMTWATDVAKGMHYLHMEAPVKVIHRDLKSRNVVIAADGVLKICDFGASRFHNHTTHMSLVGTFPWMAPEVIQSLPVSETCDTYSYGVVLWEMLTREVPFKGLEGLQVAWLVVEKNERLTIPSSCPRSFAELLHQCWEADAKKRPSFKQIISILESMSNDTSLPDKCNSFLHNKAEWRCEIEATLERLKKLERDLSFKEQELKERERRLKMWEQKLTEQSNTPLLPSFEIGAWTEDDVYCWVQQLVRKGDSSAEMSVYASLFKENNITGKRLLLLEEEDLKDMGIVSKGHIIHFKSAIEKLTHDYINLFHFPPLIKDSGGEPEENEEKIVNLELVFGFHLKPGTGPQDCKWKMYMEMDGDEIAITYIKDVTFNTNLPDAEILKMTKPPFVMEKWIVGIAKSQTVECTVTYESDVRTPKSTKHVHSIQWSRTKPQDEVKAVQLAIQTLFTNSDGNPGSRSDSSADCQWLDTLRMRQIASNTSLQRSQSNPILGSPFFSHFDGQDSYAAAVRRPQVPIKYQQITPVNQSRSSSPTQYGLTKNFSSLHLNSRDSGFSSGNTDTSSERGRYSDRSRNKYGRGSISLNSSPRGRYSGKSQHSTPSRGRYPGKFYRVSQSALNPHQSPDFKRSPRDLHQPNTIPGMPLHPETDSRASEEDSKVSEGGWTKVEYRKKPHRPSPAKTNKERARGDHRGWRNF

Row | Compound | Activity [1] | Activity [2] | Activity [3]
1 | CCCS(=O)(=O)Nc1ccc(F)c(C(=O)c2c[nH]c3ncc(-c4cccs4)cc23)c1F | 2.9% | 48% | 98%
2 | CCCS(=O)(=O)Nc1ccc(F)c(C(=O)c2c[nH]c3ncc(-c4cnccn4)cc23)c1F | 11% | 75% | 83%
3 | CCCS(=O)(=O)Nc1cccc(C(=O)c2c[nH]c3ncc(-c4ccc(Cl)cc4)cc23)c1Cl | 68% | 79% | 100%
4 | Oc1ccc(-c2ncnc3[nH]c4ccc(O)cc4c23)cc1 | 84% | 92% | 100%
5 | O=C(c1cccc(NS(=O)(=O)Cc2ccccc2)c1F)c1c[nH]c2ncc(-c3ccncc3)cc12 | 0.95% | 26% | 95%
6 | O=C(c1cccc(NS(=O)(=O)Cc2ccccc2)c1F)c1c[nH]c2ncc(-c3cccnc3)cc12 | 1.7% | 20% | 85%
7 | CS(=O)(=O)Nc1cccc(C(=O)c2c[nH]c3ncc(-c4ccc(Cl)cc4)cc23)c1F | 27% | 78% | 81%
8 | O=C(c1c(F)ccc(NS(=O)(=O)CCCF)c1F)c1c[nH]c2ncc(-c3ccc(Cl)cc3)cc12 | 1.4% | 80% | 100%
9 | C#Cc1cnc2[nH]cc(C(=O)c3c(F)ccc(NS(=O)(=O)CCC)c3F)c2c1 | 1.4% | 89% | 100%
10 | CCCS(=O)(=O)Nc1ccc(F)c(C(=O)c2c[nH]c3ncc(-c4cccc(F)c4)cc23)c1F | 0.8% | 45% | 90%
11 | O=C(c1cccc(NS(=O)(=O)Cc2ccccc2)c1F)c1c[nH]c2ncc(-c3cc4c(cc3Cl)OCO4)cc12 | 80% | 66% | 100%
12 | CCCS(=O)(=O)Nc1ccc(F)c(C(=O)c2c[nH]c3ncc(-c4ccc(OC)cc4Cl)cc23)c1F | 18% | 100% | 100%
13 | CCCS(=O)(=O)Nc1ccc(F)c(C(=O)c2c[nH]c3ncc(-c4ccc(OC)cc4OC)cc23)c1F | 1.6% | 84% | 87%
14 | CCCS(=O)(=O)Nc1ccc(F)c(C(=O)c2c[nH]c3ncc(-c4ccccc4F)cc23)c1F | 2.9% | – | 86%
15 | CCCS(=O)(=O)Nc1ccc(F)c(C(=O)c2c[nH]c3ncc(-c4cncnc4)cc23)c1F | 3.5% | 80% | 81%
16 | CCCCCCS(=O)(=O)Nc1ccc(F)c(C(=O)c2c[nH]c3ncc(-c4ccc(Cl)cc4)cc23)c1F | 73% | 99% | 81%
17 | CCCCCS(=O)(=O)Nc1ccc(F)c(C(=O)c2c[nH]c3ncc(-c4ccc(Cl)cc4)cc23)c1F | 55% | 98% | 89%
18 | CCCS(=O)(=O)Nc1ccc(F)c(C(=O)c2c[nH]c3ncc(-c4cc5c(cc4Cl)OCO5)cc23)c1F | 26% | 99% | 100%
19 | CCCS(=O)(=O)Nc1ccc(F)c(C(=O)c2c[nH]c3ncc(-c4ccccc4Cl)cc23)c1F | 7.6% | 79% | 100%

Row | Compound | Activity [1] | Activity [2] | Activity [3]
20 | CCCCS(=O)(=O)Nc1ccc(F)c(C(=O)c2c[nH]c3ncc(-c4ccc(Cl)cc4)cc23)c1F | 29% | 75% | 100%
21 | Cc1cccc(CS(=O)(=O)Nc2ccc(F)c(C(=O)c3c[nH]c4ncc(-c5ccc(Cl)cc5)cc34)c2F)c1 | 64% | – | 100%
22 | CCCS(=O)(=O)Nc1ccc(F)c(C(=O)c2c[nH]c3ncc(-c4ccc(OC)cc4F)cc23)c1F | 6% | – | 85%
23 | CCCS(=O)(=O)Nc1ccc(F)c(C(=O)c2c[nH]c3ncc(-c4cc5c(cc4Cl)OCCO5)cc23)c1F | 20% | 98% | 97%
24 | O=C(c1c(F)ccc(NS(=O)(=O)c2ccccc2)c1F)c1c[nH]c2ncc(-c3ccc(Cl)cc3)cc12 | 4.9% | 83% | 83%
25 | O=C(c1cccc(NS(=O)(=O)Cc2ccccc2)c1F)c1c[nH]c2ncc(-c3ccc(Cl)cc3)cc12 | 66% | 72% | 97%
26 | CCCS(=O)(=O)Nc1ccc(F)c(C(=O)c2c[nH]c3ncc(-c4ccc(F)cc4F)cc23)c1F | 5.9% | – | 93%
27 | CCCS(=O)(=O)Nc1ccc(F)c(C(=O)c2c[nH]c3ncc(-c4ccco4)cc23)c1F | 2.1% | 78% | 95%
28 | CCCS(=O)(=O)Nc1ccc(F)c(C(=O)c2c[nH]c3ncc(-c4ccc(F)cc4)cc23)c1F | 0.9% | 67% | 100%
29 | COc1ccc(-c2cnc3[nH]cc(C(=O)c4cccc(NS(=O)(=O)Cc5ccccc5)c4F)c3c2)c(Cl)c1 | 87% | 79% | 100%
30 | O=C(c1c(F)ccc(NS(=O)(=O)Cc2ccc(F)cc2)c1F)c1c[nH]c2ncc(-c3ccc(Cl)cc3)cc12 | 61% | – | 100%
31 | O=C(c1c(F)ccc(NS(=O)(=O)Cc2ccccc2F)c1F)c1c[nH]c2ncc(-c3ccc(Cl)cc3)cc12 | 23% | – | 97%
32 | CCCS(=O)(=O)Nc1ccc(F)c(C(=O)c2c[nH]c3ncc(-c4cnc(OC)nc4)cc23)c1F | 8.9% | 86% | 84%
33 | O=C(c1c(F)ccc(NS(=O)(=O)CCc2ccccc2)c1F)c1c[nH]c2ncc(-c3ccc(Cl)cc3)cc12 | 53% | 100% | 97%
34 | COCCS(=O)(=O)Nc1ccc(F)c(C(=O)c2c[nH]c3ncc(-c4ccc(Cl)cc4)cc23)c1F | 58% | 100% | 75%
35 | CCCS(=O)(=O)Nc1ccc(F)c(C(=O)c2c[nH]c3ncc(-c4ccc(OC)cc4C)cc23)c1F | 13% | – | 97%
36 | CCCS(=O)(=O)Nc1ccc(F)c(C(=O)c2c[nH]c3ncc(-c4ccc(OC)c(OC)c4)cc23)c1F | 18% | 14% | 84%
37 | CCCS(=O)(=O)Nc1cccc(C(=O)c2c[nH]c3ncc(-c4ccc(Cl)cc4)cc23)c1 | – | 44% | 100%
38 | CCCS(=O)(=O)Nc1ccc(F)c(C(=O)c2c[nH]c3ncc(-c4ccc(OC)cc4)cc23)c1F | – | 38% | 70%

The next lines start with the values.

Row | Activity [1] | Activity [2] | Activity [3] | Compound
39 | 90% | 97% | 98% | Cc1cc(F)ccc1-c1cnc2[nH]cc(C(=O)c3cccc(NS(=O)(=O)Cc4ccccc4)c3F)c2c1
40 | 23% | 18% | 100% | CCCS(=O)(=O)Nc1ccc(F)c(C(=O)c2c[nH]c3ncc(-c4cccc(OC)c4)cc23)c1F
41 | 16% | 43% | 100% | CCCS(=O)(=O)Nc1ccc(F)c(C(=O)c2c[nH]c3ncc(-c4ccccc4OC)cc23)c1F
42 | 0.5% | 29% | 100% | CCCS(=O)(=O)Nc1ccc(F)c(C(=O)c2c[nH]c3ncc(-c4ccccc4)cc23)c1F
43 | 2.6% | 63% | 87% | CS(=O)(=O)Nc1ccc(F)c(C(=O)c2c[nH]c3ncc(-c4ccc(Cl)cc4)cc23)c1F
44 | 14% | 100% | 100% | CCCS(=O)(=O)Nc1ccc(F)c(C(=O)c2c[nH]c3ncc(-c4ccc(F)cc4C)cc23)c1F
45 | – | 40% | 91% | CCCS(=O)(=O)Nc1cccc(C(=O)c2c[nH]c3ncc(-c4ccc(Cl)cc4)cc23)c1C
46 | 36% | – | 99% | O=C(c1c(F)ccc(NS(=O)(=O)Cc2cccc(F)c2)c1F)c1c[nH]c2ncc(-c3ccc(Cl)cc3)cc12
47 | 2.2% | – | 85% | CCCS(=O)(=O)Nc1ccc(F)c(C(=O)c2c[nH]c3ncc(-c4cccc(Cl)c4)cc23)c1F
48 | 2.2% | 84% | 100% | CCCS(=O)(=O)Nc1ccc(F)c(C(=O)c2c[nH]c3ncc(-c4ccc5c(c4)OCCO5)cc23)c1F
49 | 78% | 91% | 94% | CCCC(=O)Nc1ccc(F)c(C(=O)c2c[nH]c3ncc(-c4ccc(Cl)cc4)cc23)c1F
50 | 0.85% | 28% | 89% | CCCS(=O)(=O)Nc1ccc(F)c(C(=O)c2c[nH]c3ncc(-c4ccc(C)cc4)cc23)c1F
51 | 3.5% | 54% | 100% | O=C(c1c(F)ccc(NS(=O)(=O)CCC(F)(F)F)c1F)c1c[nH]c2ncc(-c3ccc(Cl)cc3)cc12
52 | 81% | 95% | 100% | Cc1nc(NC(C)CO)c2c(n1)[nH]c1ccc(O)cc12 (configuration not stated)
53 | 19% | 100% | 100% | CCCS(=O)(=O)Nc1ccc(F)c(C(=O)c2c[nH]c3ncc(-c4ccc(F)cc4Cl)cc23)c1F
54 | 30% | 94% | 100% | O=C(c1c(F)ccc(NS(=O)(=O)Cc2ccccc2)c1F)c1c[nH]c2ncc(-c3ccc(Cl)cc3)cc12
55 | 87% | – | 90% | Cc1ccc(CS(=O)(=O)Nc2ccc(F)c(C(=O)c3c[nH]c4ncc(-c5ccc(Cl)cc5)cc34)c2F)cc1

— ChEMBL document CHEMBL4813918, “From off-to on-target: New BRAF-inhibitor-template-derived compounds selectively targeting mitogen activated protein kinase kinase 4 (MKK4)” (Eur J Med Chem, 2021)
